For experiment [1], the target named is EGFR (human) (UniProt P00533). The settings on record: HN5.
The target of experiment [2] is EGFR (human) (UniProt P00533). The conditions noted are these: hn5.
In experiment [3] the target is EGFR (human) (UniProt P00533). The conditions noted are these: siha.
Experiment [4] addresses EGFR (human) (UniProt P00533). The conditions noted are these: a431.
In experiment [5] the target is EGFR (human) (UniProt P00533). The settings on record: caski.

Several values for one entry are separate records, joined by “and”; a condition that tells them apart may be missing. Identical values can stand only once.

A word on the IC50: it is the midpoint of a concentration-inhibition curve.

Sequence of EGFR (human) (P00533 whole entry, looked up): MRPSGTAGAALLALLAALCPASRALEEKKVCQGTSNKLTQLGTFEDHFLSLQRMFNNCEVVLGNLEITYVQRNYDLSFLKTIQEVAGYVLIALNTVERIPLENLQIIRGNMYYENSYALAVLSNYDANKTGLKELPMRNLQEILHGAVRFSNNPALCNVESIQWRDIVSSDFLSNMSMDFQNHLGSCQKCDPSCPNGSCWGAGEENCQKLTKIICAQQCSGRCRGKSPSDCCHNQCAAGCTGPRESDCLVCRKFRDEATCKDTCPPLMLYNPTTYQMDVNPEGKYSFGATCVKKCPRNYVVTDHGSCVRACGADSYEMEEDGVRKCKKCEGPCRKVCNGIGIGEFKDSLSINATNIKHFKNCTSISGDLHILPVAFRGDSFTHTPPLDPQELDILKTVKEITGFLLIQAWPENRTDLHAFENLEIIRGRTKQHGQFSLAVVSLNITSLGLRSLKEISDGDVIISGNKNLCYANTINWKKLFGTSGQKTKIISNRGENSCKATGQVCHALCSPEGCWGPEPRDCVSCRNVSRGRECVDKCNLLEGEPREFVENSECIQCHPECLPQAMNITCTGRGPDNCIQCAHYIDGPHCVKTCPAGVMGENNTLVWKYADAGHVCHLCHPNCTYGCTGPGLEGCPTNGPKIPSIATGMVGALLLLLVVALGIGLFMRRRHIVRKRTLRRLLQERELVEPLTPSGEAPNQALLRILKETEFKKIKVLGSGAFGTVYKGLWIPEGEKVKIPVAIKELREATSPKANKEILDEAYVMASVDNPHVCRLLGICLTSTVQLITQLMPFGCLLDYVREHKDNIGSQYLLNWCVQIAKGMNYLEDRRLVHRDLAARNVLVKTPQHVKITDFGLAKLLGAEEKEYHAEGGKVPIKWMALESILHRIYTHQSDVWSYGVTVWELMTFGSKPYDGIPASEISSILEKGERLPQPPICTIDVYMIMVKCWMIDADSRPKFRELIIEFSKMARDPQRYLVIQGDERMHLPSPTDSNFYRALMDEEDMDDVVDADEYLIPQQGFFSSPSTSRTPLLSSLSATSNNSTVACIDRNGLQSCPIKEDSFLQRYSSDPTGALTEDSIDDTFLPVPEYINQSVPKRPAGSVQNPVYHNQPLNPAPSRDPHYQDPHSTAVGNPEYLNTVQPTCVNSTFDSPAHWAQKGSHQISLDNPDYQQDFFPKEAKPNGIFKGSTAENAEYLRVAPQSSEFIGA

`N#CC(C#N)=Cc1cc([N+](=O)[O-])cs1`: at EGFR (human) [1], the IC50 stood at 2 µM.
The same measure, in the same setting: in the case of `CC(C)(C)OC(=O)/C(C#N)=C/c1ccc([N+](=O)[O-])s1` it was 75 µM; in that of `CCCCOC(=O)/C(C#N)=C/c1csc([N+](=O)[O-])c1`, over 500 µM; in that of `N#C/C(=C\c1csc([N+](=O)[O-])c1)C(N)=S`, 10.5 µM.
Regarding `CC(C)(C)OC(=O)/C(C#N)=C/c1csc([N+](=O)[O-])c1`, the IC50 against EGFR (human) [1] was determined as 150 µM.
In the case of `N#CC(C#N)=Cc1ccc([N+](=O)[O-])s1`, the IC50 on EGFR (human) [2] was found to be 20.7 µM; against EGFR (human) [3], 25.4 µM; at EGFR (human) [4], 28 µM; against EGFR (human) [1] it was 50 µM; against EGFR (human) [5] it was 25.8 µM.
On to `CCOC(=O)/C(C#N)=C/c1cc([N+](=O)[O-])cs1`, for which, at EGFR (human) [1], the IC50 is over 500 µM.
Turning to `N#CC(C#N)=C(N)/C(C#N)=C/c1csc([N+](=O)[O-])c1`, the 50% inhibitory concentration (IC50) against EGFR (human) [2] is over 100 µM; against EGFR (human) [3], over 100 µM; at EGFR (human) [4] it was over 100 µM; against EGFR (human) [1], 7 µM; against EGFR (human) [5], over 100 µM.
On EGFR (human) [1], `COC(=O)/C(C#N)=C/c1ccc([N+](=O)[O-])s1` had an IC50 of over 500 µM.
The same measure, in the same setting: to `N#C/C(=C\c1ccc([N+](=O)[O-])s1)C(N)=O` belongs over 500 µM; to `N#C/C(=C\c1cc([N+](=O)[O-])cs1)C(N)=S`, over 500 µM.
Same read-out and setting: in the case of `N#CC(C#N)=Cc1ccsc1[N+](=O)[O-]` it was 15.3 µM; in that of `COC(=O)/C(C#N)=C/c1csc([N+](=O)[O-])c1`, over 500 µM.
Still for that read-out and setting: to `COC(=O)/C(C#N)=C/c1ccsc1[N+](=O)[O-]` belongs 50 µM.
Turning to `N#C/C(=C\c1ccsc1[N+](=O)[O-])C(N)=S`, the 50% inhibitory concentration (IC50) at EGFR (human) [2] was determined as 0.27 µM; at EGFR (human) [3] it was 0.35 µM; against EGFR (human) [4], 0.11 µM; against EGFR (human) [1], 22.6 µM; against EGFR (human) [5], 0.32 µM.
Compound `N#C/C(=C\c1ccsc1[N+](=O)[O-])C(N)=O` gave a half-maximal inhibitory concentration (IC50) against EGFR (human) [1] of 400 µM.
In the case of `N#CC(C#N)=C(N)/C(C#N)=C/c1ccsc1[N+](=O)[O-]`, the IC50 at EGFR (human) [2] is 5.1 µM; against EGFR (human) [3] it was 7.8 µM; against EGFR (human) [4], 4.73 µM; against EGFR (human) [1], 14.6 µM; against EGFR (human) [5], 4.7 µM.
With `N#CC(C#N)=C(N)/C(C#N)=C/c1cc([N+](=O)[O-])cs1`, the IC50 at EGFR (human) [1] was 160 µM.
Still for that read-out and setting: in the case of `CCCCOC(=O)/C(C#N)=C/c1ccsc1[N+](=O)[O-]` it was over 500 µM; in that of `CC(C)(C)OC(=O)/C(C#N)=C/c1ccsc1[N+](=O)[O-]`, 9 µM.
On the same count and under the same terms, in the case of `N#C/C(=C\c1csc([N+](=O)[O-])c1)C(=O)O` it was over 500 µM.
With `CCOC(=O)/C(C#N)=C/c1csc([N+](=O)[O-])c1`, the IC50 is over 100 µM at EGFR (human) [2]; over 100 µM on EGFR (human) [3]; over 100 µM against EGFR (human) [4]; 9 µM against EGFR (human) [1]; over 100 µM against EGFR (human) [5].
In the case of `CCCCOC(=O)/C(C#N)=C/c1cc([N+](=O)[O-])cs1`, on EGFR (human) [1], the IC50 is over 500 µM.
With `N#C/C(=C\c1ccc([N+](=O)[O-])s1)C(N)=S`, the half-maximal inhibitory concentration (IC50) against EGFR (human) [2] worked out at 66.9 µM; at EGFR (human) [3], 82.1 µM; at EGFR (human) [4] it was 71.6 µM; against EGFR (human) [1], 37.5 µM; on EGFR (human) [5] it was 82.9 µM.
On EGFR (human) [1], `CCOC(=O)/C(C#N)=C/c1ccsc1[N+](=O)[O-]` yielded an IC50 of 100 µM.
Still for that read-out and setting: to `N#C/C(=C\c1ccc([N+](=O)[O-])s1)C(=O)O` belongs 150 µM and > 500 µM.
In the case of `N#C/C(=C\c1csc([N+](=O)[O-])c1)C(N)=O`, on EGFR (human) [1], the IC50 is over 500 µM.
Still for that read-out and setting: to `COC(=O)/C(C#N)=C/c1cc([N+](=O)[O-])cs1` belongs 18 µM; to `N#C/C(=C\c1cc([N+](=O)[O-])cs1)C(N)=O`, 47 µM.
On the same count and under the same terms, in the case of `CCCCOC(=O)/C(C#N)=C/c1ccc([N+](=O)[O-])s1` it was over 500 µM.

Source of the values: the Kinase Knowledgebase extract (Sharma et al. 2016).
